These results are taken from paper PMC10254233, “Synthesis and In Vitro Biological Evaluation of p-Carborane-Based Di-tert-butylphenol Analogs” (Molecules, 2023).

For one assay, the system named is A549 lung adenocarcinoma. The experiment in a line: Cell viability, MTT assay, A549. It is filed as cell-based, human. To be noted: 72 h, mean ± SD. On the procedure:
Five human cell lines (A375 melanoma, A549 lung adenocarcinoma, HCT116 and HT29 colorectal carcinoma, MDA-MB-231 triple-negative breast adenocarcinoma) were used to study the antitumor effects of the di-tert-butylphenols and their respective carborane analogs. All selected cell lines were derived from inflammation-associated tumors.
After the incubation period, the supernatant was discarded from the wells, and the cells were washed two times with 200 µL of PBS. Next, MTT solution at a final concentration of 0.5 mg/mL was added and incubated at 37 °C until purple formazan crystals were formed (30 min to one hour). After incubation, the dye was discarded. In order to dissolve the formed formazan crystals DMSO was added, and the absorbance was measured at λmax = 540 nm, with the reference/background wavelength of 670 nm. All results are expressed as a percentage of the control value which was arbitrary set to 100%. After 72 h treatment, cells were washed with 200 µL of PBS and fixed with 4% paraformaldehyde (PFA) for 15 min at room temperature (RT). Next, cells were stained with 1% CV solution. After 20 min, cells were washed in tap water and dried on air. Dye was dissolved in 33% acetic acid and the absorbance was measured at λmax = 540 nm, with the reference/background wavelength of 670 nm. Results were expressed as a percentage of the control value which was arbitrary set to 100%.
1. General methods, materials, and procedures
1.1.1. Reagents and cells
Reagents and cells were obtained from following manufacturers: Capricorn Scientific GmbH (Hessen, Germany) – Culture medium RPMI-1640, Dulbecco's Modified Eagle Medium (DMEM), and fetal bovine serum (FBS). Serva (Heidelberg, Germany) – Paraformaldehyde (PFA). Sigma (St. Louis, MO, USA) – Ethylenediaminetetraacetic acid (EDTA), Dimethyl sulfoxide (DMSO), chloroquine, CV, Triton X-100, RNase, PI, PBS, 3-MA, CFSE, and fluorescent mounting medium. AppliChem (MO, USA) –MTT. Thermo Fisher Scientific (Waltham, MA, USA) – DHR. R&D Systems (Minneapolis, MN, USA) – ApoStat. BD (Pharmingen, San Diego, SAD) – Annexin V-FITC (AnnV). Biological Industries (Cromwell, CT, USA) – Penicillin Streptomycin solution. American Type Culture Collection (ATCC, Manassas, Virginia, USA) – Human lung carcinoma (A549), human breast adenocarcinoma (MDA-MB-231), human colorectal ade-nocarcinoma (HT-29), human colorectal carcinoma (HCT116) and human melanoma (A375).
Cell lines (A375, HCT116, HT-29 and MDA-MB-231) were cultivated in HEPES-buffered RPMI-1640 medium while A549 cell line was cultivated in Dulbecco's Modified Eagle Medium (DMEM) which were previously supplemented with 10% heat-inactivated FBS, penicillin (100 units/mL), and streptomycin (100 μg/mL). All cells were kept at 37 °C in a humidified atmosphere with 5% CO2. For viability determi-nation cells were seeded at following densities in 96-well plates: 4 x 10^3 cells/well (A375, HT-29 and MDA-MB-231), 5 x 10^3 cells/well (HCT116), and 3 x 10^3 cells/well (A549). […]
Afterwards, cells were washed with phosphate-buffered saline (PBS) and stained with AnnV (15 μg/mL) and PI (15 μg/mL). After 15 min incubation at room temperature (RT) protected from light the cells were resuspended in AnnV-binding buffer and analysed using flow cytom-etry. HCT116 cells were incubated with pan-caspase inhibitor Apostat for 30 min at 37 °C to determine whether detected apoptosis was mediated by caspase activation. Afterwards, cells were washed with PBS and analyzed using flow cytometry. HCT116 cells were stained with 1 µg/mL of AO solution for 15 min at 37 °C to detect the presence of autophagic cell death. Afterwards cells were washed with PBS, resuspended and analyzed by flow cytometry (CyFlow® Space Partec using the PartecFloMax® software

A further assay addresses T1, ovine COX-1 (Ovis aries, UniProt P05979).
T1 construct: purchased Cayman Chemical Company
T1 sequence (P05979 25-600): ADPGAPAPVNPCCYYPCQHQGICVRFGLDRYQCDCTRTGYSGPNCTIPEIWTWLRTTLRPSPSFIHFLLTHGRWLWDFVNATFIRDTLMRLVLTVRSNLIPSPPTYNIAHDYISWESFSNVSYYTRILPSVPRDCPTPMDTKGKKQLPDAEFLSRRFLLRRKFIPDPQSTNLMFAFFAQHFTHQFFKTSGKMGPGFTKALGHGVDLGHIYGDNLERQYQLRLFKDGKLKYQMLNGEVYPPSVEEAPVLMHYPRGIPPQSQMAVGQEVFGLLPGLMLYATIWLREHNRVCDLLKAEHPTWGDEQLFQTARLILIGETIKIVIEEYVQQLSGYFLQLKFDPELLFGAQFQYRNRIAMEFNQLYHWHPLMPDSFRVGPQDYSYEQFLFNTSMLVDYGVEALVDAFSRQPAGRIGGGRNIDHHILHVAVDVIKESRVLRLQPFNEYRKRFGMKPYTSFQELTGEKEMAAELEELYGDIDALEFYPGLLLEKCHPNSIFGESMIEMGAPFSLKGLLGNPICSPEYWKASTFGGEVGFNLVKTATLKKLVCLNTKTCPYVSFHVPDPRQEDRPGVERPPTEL
Briefly: COX Fluorescent Inhibitor Screening Assay, COX-1. Type of assay: biochemical. The settings on record: in duplicate. On the procedure:
(§1) COX inhibition activity against ovine COX-1 and human COX-2 was determined using the fluorescence-based COX assay COX Fluorescent Inhibitor Screening Assay Kit (Cayman Chemical Company, Ann Arbor, MI, USA) according to the manufacturer’s instructions as previously reported by us. All compounds were screened at a concentration of 100 µM in duplicate.

The next assay has as its target T2, human recombinant COX-2 (Homo sapiens, UniProt P35354).
T2 construct: purchased Cayman Chemical Company
T2 sequence (P35354 18-604): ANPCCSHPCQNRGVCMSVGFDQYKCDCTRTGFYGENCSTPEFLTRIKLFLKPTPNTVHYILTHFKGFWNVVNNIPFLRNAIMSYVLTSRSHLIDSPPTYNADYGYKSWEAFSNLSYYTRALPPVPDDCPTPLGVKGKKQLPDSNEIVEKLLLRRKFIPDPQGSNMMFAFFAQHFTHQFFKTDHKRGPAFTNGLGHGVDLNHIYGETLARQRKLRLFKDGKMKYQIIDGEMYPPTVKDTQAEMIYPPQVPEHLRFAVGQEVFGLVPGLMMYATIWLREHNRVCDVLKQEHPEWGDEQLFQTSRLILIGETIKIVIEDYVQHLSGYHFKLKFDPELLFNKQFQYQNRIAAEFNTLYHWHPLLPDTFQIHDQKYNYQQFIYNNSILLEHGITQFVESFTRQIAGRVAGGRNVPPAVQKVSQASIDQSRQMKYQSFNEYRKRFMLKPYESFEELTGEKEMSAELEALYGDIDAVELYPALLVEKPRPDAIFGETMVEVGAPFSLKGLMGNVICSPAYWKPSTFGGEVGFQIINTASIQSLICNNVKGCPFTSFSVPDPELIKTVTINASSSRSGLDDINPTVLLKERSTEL
Briefly: COX Fluorescent Inhibitor Screening Assay, COX-2. Type of assay: biochemical. The settings on record: in duplicate. On the procedure:
as §1

“1-Hydroxy-12-(thiophen-2′-carbonyl)-1,12-dicarba-closo-dodecaborane(12) [Compound R-830-Cb]” displayed an IC50 with A549 lung adenocarcinoma of 66.5 ± 1.7 µM. Besides, the “% Inhibition at 100 µM COX-1” value on ovine COX-1 is recorded as 18%. Further, at human recombinant COX-2, the “% Inhibition at 100 µM COX-2” value is 6%.
The matching figures for “(3E)-1-Hydroxy-12-(methylene-[1′-methoxypyrrolidine-2′-one])-1,12-dicarba-closo-dodecaborane(12) [Compound E-5110-Cb]”: 177 ± 14.5 µM, “n.i. (n.i. = no inhibition (%inhibition below 5%))” and “n.i. (n.i. = no inhibition (%inhibition below 5%))”.
The matching figures for “(3E)-1-Hydroxy-12-(methylene-[2′-ethylisothiazolidine-1′,1′-dioxide])-1,12-dicarba-closo-dodecaborane(12) [Compound S-2474-Cb]”: 122 ± 10.4 µM, “n.i. (n.i. = no inhibition (%inhibition below 5%))” and “n.i. (n.i. = no inhibition (%inhibition below 5%))”.
“(3E)-1-Hydroxy-12-(methylene-[dihydrofurane-2′(3H)-one])-1,12-dicarba-closo-dodecaborane(12) [KME-4-Cb]”: the IC50 with A549 lung adenocarcinoma was determined as 120 ± 7 µM. For the same substance, the “% Inhibition at 100 µM COX-1” value at ovine COX-1 came to 26%. The “% Inhibition at 100 µM COX-2” value at human recombinant COX-2 is reported as “n.i. (n.i. = no inhibition (%inhibition below 5%))”.

In general, IC50 refers to the point on the concentration scale where inhibition reaches its midpoint. Lower therefore signals greater potency in that assay. By % Inhibition is commonly meant the relative decrease from the control value, in per cent.
